Laboratory results published in PubChem BioAssay (NCI).
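Compound exposure: 48 hours, 5 concentrations, 96-well plates. TGI is the concentration that stops growth completely.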 Where a SMILES comes first, the peptide text is derived from it. [ ]: non-standard residue; d: D form. The star is where a group is joined. ξ: configuration not given here. dThr(3ξ) = CC(O)[C@@H](N)C(=O)O; dNMeL = CN[C@H](CC(C)C)C(=O)O; OBn = c1ccc(CO*)cc1; ξLac = CC(O)C(=O)O

How the values were obtained:
Assay in all cases: growth of human tumour cells (NCI), 48 h
[1] = system: A498 renal
[2] = system: A549 NSCLC
[3] = system: BT-549 breast
[4] = system: CAKI-1 renal
[5] = system: CCRF-CEM leukemia
[6] = system: HCC-2998 colon
[7] = system: HCT-116 colon
[8] = system: HOP-92 NSCLC
[9] = system: IGROV1 ovarian
[10] = system: MALME-3M melanoma
[11] = system: MDA-N
[12] = system: NCI-H226 lung
[13] = system: NCI-H460 lung
[14] = system: OVCAR-3 ovarian
[15] = system: RXF 393 renal
[16] = system: SF-295 CNS
[17] = system: SK-OV-3 ovarian
[18] = system: SN12C renal
[19] = system: T-47D breast
[20] = system: U251 CNS

| Compound | TGI [1] [µM] | TGI [2] [µM] | TGI [3] [µM] | TGI [4] [µM] | TGI [5] [µM] | TGI [6] [µM] | TGI [7] [µM] | TGI [8] [µM] | TGI [9] [µM] | TGI [10] [µM] | TGI [11] [µM] | TGI [12] [µM] | TGI [13] [µM] | TGI [14] [µM] | TGI [15] [µM] | TGI [16] [µM] | TGI [17] [µM] | TGI [18] [µM] | TGI [19] [µM] | TGI [20] [µM] |
| --- | --- | --- | --- | --- | --- | --- | --- | --- | --- | --- | --- | --- | --- | --- | --- | --- | --- | --- | --- | --- |
| O=C1CCCC2=C(N1)C(=O)C=CC2=O | > 70.4 | > 78.5 | 31.1 | 49.6 | 28.5 | > 100 | 49.1 | 38.8 | 57.2 | 56.6 | 30.9 | > 68.5 | 63.8 | 64.4 | 62.9 | 56.4 | > 100 | > 69.2 | 52.7 | 58.8 |
| O=c1[nH]c(-c2cccc(F)c2)nc2ccccc12 | > 73.2 | > 100 | > 68.8 | > 100 | > 100 | > 100 | > 57.7 | > 72 | > 100 | > 100 | > 100 | > 100 | > 100 | > 100 | 89.4 | > 72.7 | > 61.3 | > 92 | > 100 | > 100 |
| CCCCCC(O)[C@H]1C(=O)C[C@@H](O[Si](C)(C)C(C)(C)C)[C@@H]1/C=C/CCOCc1ccccc1 (some centres not stated) | 39.9 | > 60.3 | 21.3 | 29.9 | > 100 | 30.9 | > 45.5 | 28.1 | 25.6 | 28.8 | > 63.9 | 27.5 | 30.5 | 28.1 | 31.3 | 20.3 | 31.1 | 38.4 | 40.1 | 29.6 |
| COC(=O)c1ccc(N=NN(C)COc2ccc(C#N)cc2)cc1 | > 100 | > 100 | > 100 | > 100 | > 100 | > 100 | > 100 | > 100 | > 100 | > 100 | > 100 | > 100 | > 100 | > 100 | > 100 | > 100 | > 100 | > 100 | > 100 | > 100 |
| Cn1c(=O)c2c(no[n+]2[O-])n(C)c1=O | 48 | > 100 | 51.9 | 35.2 | > 100 | > 100 | > 100 | 44.1 | 58.7 | 40 | 50.7 | 59.3 | > 100 | > 100 | 94.2 | > 100 | > 100 | > 100 | > 100 | 49.4 |
| Cn1c(=O)[nH]c2[nH]c3ccccc3c2c1=O | > 100 | > 100 | > 100 | > 100 | > 100 | > 100 | > 100 | > 100 | > 100 | > 100 | > 100 | > 100 | – | > 100 | > 100 | > 100 | > 100 | > 100 | > 100 | > 100 |
| CCOC(=O)c1sc2nc(SC)nc3c2c1N=CN3c1ccccc1Cl | 56.3 | > 100 | > 100 | 89.1 | > 100 | > 100 | > 100 | 74.5 | > 100 | > 100 | > 100 | > 100 | > 100 | > 100 | 68.6 | > 100 | > 100 | > 100 | > 100 | > 100 |
| O=C1c2cccnc2S(=O)N1Cc1ccccc1 (configuration not stated) | > 100 | > 100 | > 100 | > 100 | > 100 | > 100 | > 100 | > 100 | > 100 | > 100 | > 100 | > 100 | > 100 | – | > 100 | > 100 | > 100 | > 100 | > 100 | > 100 |
| O=C1C2=Cc3ccccc3OC2(O)Oc2cc(O)ccc21 (configuration not stated) | > 100 | > 100 | > 100 | > 100 | 88.7 | > 100 | > 100 | > 100 | > 100 | > 100 | > 100 | > 100 | – | > 100 | > 100 | > 100 | > 100 | > 100 | > 100 | > 100 |
| CC(=O)OC(C)[C@@H](NC(=O)[C@@H](CC(C)C)N(C)C(=O)[C@@H]1CCCN1C(=O)C(C)O)C(=O)OCc1ccccc1 (some centres not stated) (H-[ξLac]P[dNMeL][dThr(3ξ)](Ac)-OBn) | > 100 | > 100 | > 100 | > 100 | > 100 | > 100 | > 100 | > 100 | > 100 | > 100 | > 100 | > 100 | > 100 | > 100 | > 100 | > 100 | > 100 | > 100 | > 100 | > 100 |
| c1ccc(C2C3=C(CCCC3)Nc3nc4cc5ccccc5cc4n32)cc1 (configuration not stated) | > 100 | > 100 | > 100 | > 100 | > 100 | > 100 | > 100 | > 100 | > 100 | > 100 | > 100 | > 100 | > 100 | > 100 | > 100 | > 100 | > 100 | > 100 | > 100 | > 100 |
| CCCCOC(=O)C1CN2C=CC=NC2=NC1(C(F)(F)F)C(F)(F)F (configuration not stated) | > 100 | > 100 | > 100 | > 100 | > 100 | > 100 | > 100 | > 100 | > 100 | > 100 | > 100 | > 100 | > 100 | > 100 | > 100 | > 100 | > 100 | > 100 | > 100 | > 100 |
